According to ChEMBL document CHEMBL1201862, “PubChem BioAssay data set” (2004):
Structures can show the parent of a compound that is named as a salt. The source made the active and inactive calls.

How the values were obtained:
[1] = biological target: Eukaryotic translation initiation factor 4H (Homo sapiens, UniProt Q15056); experiment: inhibitors of translation initiation factor eIF4H – SAR follow-up (AID 435011); format: functional
[2] = biological target: Polyadenylate-binding protein 1 (Homo sapiens, UniProt P11940); experiment: PABP inhibition in translation initiation, SAR follow-up (AID 435018); format: functional
Cytochrome P450 2C9 = Cytochrome P450 2C9 (Homo sapiens, UniProt P11712); conditions: Potency
[3] = biological target: T1, Voltage-dependent T-type calcium channel subunit alpha-1H (Homo sapiens, UniProt O95180); format: functional
[4] = biological target: T1, Voltage-dependent T-type calcium channel subunit alpha-1H; experiment: Inhibitors of T-Type Calcium Channels. [Related pubchem assays (depositor defined):AID449739, AID463087, AID489005, AID493041, AID504579, AID504584, AID504619, AID504628]; format: functional
Hexokinase = Hexokinase (Trypanosoma brucei, UniProt Q38C41); experiment: Confirmation assay for inhibitors of Trypanosoma brucei hexokinase 1-Analogue-first series. [Related pubchem assays (depositor defined):AID1430, AID1632, AID2516, AID2560, AID2579, AID2600, AID449725, AID492951]; format: functional
Procathepsin L = Procathepsin L (Homo sapiens, UniProt P07711)
Aspartyl aminopeptidase = Aspartyl aminopeptidase (Plasmodium falciparum 3D7, UniProt Q8I2J3)
Cytochrome P450 3A4 [5] = biological target: T2, Cytochrome P450 3A4 (Homo sapiens, UniProt P08684); conditions: Potency;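 note: confirmatory qHTS run detecting inhibitors and substrates of CYP3A4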
Cytochrome P450 3A4 [6] = biological target: T2, Cytochrome P450 3A4; conditions: read-out: Potency
Large T antigen = Large T antigen (Simian virus 40, UniProt P03070); format: functional, Betapolyomavirus macacae;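 note: Confirmatory-stage PubChem screen for compounds that inhibit SV40 T antigen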
[7] = biological target: T3, Ubiquitin-conjugating enzyme E2 N (Homo sapiens, UniProt P61088); format: functional
T3 sequence (P61088 whole entry): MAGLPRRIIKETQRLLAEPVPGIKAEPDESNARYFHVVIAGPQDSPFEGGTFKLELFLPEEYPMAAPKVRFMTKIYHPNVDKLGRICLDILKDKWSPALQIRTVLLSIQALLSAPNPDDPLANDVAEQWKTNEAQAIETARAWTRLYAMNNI

Bcl-2-related protein A1 = Bcl-2-related protein A1 (Mus musculus, UniProt Q07440); format: functional;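 note: confirmatory dose–response counterscreen on Bfl-1, used to check hits from a UBC13 polyubiquitin inhibitor campaign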
Beta-galactosidase = Beta-galactosidase (Escherichia coli, UniProt Q8VNN2); experiment: detection-enzyme interference by beta-gal modulators – biochemical, E. coli enzyme, set 3, artefact control for CCR6 antagonist project, dose response (AID 504712); format: functional
[8] = biological target: C-C chemokine receptor type 6 (Homo sapiens, UniProt P51684); experiment: antagonism of CCR6 beta-arrestin recruitment – cell-based, luminescent beta-arrestin readout, dose response (AID 504728); format: functional
Cysteine protease ATG4B = Cysteine protease ATG4B (Homo sapiens, UniProt Q9Y4P1); format: functional;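 note: Fluorescence-based dose-response confirmation assay measuring inhibition of ATG4B activity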
Hexokinase HKDC1 = biological target: T4, Hexokinase HKDC1 (Homo sapiens, UniProt Q2TB90); experiment: inhibition of HKDC1 glucose phosphorylation – biochemical, W721R variant, dose response (AID 504729); format: functional
T4 sequence (Q2TB90 whole entry): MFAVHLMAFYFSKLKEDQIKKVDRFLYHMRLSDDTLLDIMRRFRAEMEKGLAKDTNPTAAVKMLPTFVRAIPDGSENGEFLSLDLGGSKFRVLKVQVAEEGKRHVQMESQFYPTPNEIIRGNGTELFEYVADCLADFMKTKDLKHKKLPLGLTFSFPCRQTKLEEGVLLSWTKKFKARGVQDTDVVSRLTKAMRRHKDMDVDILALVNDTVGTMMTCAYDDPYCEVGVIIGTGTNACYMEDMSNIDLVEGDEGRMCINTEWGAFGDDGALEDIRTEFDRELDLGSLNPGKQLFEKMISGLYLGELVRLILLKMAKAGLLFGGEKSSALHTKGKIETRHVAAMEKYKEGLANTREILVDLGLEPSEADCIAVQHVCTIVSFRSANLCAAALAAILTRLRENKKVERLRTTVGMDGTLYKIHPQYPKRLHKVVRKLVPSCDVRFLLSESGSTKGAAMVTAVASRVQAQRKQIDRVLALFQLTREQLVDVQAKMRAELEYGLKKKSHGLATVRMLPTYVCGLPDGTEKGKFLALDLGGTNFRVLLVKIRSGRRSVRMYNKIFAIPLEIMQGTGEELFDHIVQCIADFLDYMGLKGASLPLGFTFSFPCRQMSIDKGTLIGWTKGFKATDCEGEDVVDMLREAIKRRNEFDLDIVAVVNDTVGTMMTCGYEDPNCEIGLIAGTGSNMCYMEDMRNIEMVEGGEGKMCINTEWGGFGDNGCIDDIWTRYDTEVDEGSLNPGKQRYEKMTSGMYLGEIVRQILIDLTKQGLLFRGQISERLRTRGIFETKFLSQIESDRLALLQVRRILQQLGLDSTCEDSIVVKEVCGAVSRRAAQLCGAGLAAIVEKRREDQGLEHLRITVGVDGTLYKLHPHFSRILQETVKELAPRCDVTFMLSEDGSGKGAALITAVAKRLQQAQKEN

[9] = biological target: T3, Ubiquitin-conjugating enzyme E2 N; format: functional; remark: listed apart in the source
Phospholipase A2 = Phospholipase A2 (Homo sapiens, UniProt P04054); format: functional;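 note: confirmatory dose-response counterscreen on phospholipase A2, testing hits that came from an ultra-high-throughput screen for ATG4B inhibitors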
[10] = biological target: Heat shock protein HSP 90-alpha (Homo sapiens, UniProt P07900); format: functional, organism-based

T1 sequence (O95180 whole entry): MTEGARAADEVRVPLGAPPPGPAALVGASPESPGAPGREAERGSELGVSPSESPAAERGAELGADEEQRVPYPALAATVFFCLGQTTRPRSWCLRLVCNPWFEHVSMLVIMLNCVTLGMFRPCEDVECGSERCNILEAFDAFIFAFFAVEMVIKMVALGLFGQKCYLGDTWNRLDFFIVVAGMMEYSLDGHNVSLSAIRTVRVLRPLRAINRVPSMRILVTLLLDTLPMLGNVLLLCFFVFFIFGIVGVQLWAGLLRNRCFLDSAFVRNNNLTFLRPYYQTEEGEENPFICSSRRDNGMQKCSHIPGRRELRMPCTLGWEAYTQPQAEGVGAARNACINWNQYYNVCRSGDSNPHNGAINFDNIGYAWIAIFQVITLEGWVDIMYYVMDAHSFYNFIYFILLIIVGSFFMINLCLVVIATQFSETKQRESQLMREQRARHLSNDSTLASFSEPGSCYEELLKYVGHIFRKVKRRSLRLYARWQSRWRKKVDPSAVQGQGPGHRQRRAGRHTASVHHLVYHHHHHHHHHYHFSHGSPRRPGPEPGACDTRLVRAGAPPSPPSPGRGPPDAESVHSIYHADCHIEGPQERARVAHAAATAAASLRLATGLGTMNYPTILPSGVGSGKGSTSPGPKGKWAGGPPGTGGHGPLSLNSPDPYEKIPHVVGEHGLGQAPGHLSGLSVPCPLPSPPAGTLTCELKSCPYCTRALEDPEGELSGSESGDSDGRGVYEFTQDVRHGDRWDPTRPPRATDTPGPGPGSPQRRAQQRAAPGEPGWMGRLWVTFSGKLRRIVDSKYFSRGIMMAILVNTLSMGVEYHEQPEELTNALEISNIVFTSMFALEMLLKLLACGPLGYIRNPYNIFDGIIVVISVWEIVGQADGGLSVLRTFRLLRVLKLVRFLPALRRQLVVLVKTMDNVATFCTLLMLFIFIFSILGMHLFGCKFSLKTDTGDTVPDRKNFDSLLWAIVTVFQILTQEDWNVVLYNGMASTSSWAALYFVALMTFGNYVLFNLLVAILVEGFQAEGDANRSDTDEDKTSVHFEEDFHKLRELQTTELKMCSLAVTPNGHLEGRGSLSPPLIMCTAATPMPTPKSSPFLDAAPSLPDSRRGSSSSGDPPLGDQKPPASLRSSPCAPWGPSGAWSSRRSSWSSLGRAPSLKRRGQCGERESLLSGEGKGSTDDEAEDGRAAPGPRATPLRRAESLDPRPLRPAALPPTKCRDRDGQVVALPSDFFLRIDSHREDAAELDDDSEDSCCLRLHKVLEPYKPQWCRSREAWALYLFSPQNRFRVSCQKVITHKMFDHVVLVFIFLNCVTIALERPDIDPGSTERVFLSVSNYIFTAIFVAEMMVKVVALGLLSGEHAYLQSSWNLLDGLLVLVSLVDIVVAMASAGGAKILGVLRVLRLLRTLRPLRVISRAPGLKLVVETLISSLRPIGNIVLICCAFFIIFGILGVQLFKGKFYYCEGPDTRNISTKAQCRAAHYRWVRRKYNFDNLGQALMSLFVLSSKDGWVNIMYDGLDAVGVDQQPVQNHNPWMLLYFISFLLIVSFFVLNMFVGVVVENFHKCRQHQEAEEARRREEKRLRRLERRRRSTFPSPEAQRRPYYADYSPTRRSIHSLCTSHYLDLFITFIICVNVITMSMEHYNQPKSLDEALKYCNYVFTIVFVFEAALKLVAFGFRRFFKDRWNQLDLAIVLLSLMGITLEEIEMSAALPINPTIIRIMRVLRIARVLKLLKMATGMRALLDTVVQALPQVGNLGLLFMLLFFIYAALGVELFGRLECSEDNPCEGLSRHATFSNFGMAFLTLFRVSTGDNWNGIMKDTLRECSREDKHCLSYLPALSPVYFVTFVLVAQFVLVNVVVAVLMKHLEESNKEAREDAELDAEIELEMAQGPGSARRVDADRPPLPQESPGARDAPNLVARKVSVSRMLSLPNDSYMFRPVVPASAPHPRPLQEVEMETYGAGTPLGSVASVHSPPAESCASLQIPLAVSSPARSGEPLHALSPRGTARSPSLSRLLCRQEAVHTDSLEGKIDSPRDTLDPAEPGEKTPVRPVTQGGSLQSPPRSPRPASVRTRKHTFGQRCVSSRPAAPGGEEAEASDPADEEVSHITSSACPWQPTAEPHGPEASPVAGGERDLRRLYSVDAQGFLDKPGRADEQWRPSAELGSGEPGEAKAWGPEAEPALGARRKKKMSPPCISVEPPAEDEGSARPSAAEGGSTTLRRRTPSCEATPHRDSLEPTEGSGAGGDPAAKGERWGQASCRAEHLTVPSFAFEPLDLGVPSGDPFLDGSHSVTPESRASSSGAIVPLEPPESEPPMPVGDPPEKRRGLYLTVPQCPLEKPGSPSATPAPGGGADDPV
T2 sequence (P08684 whole entry): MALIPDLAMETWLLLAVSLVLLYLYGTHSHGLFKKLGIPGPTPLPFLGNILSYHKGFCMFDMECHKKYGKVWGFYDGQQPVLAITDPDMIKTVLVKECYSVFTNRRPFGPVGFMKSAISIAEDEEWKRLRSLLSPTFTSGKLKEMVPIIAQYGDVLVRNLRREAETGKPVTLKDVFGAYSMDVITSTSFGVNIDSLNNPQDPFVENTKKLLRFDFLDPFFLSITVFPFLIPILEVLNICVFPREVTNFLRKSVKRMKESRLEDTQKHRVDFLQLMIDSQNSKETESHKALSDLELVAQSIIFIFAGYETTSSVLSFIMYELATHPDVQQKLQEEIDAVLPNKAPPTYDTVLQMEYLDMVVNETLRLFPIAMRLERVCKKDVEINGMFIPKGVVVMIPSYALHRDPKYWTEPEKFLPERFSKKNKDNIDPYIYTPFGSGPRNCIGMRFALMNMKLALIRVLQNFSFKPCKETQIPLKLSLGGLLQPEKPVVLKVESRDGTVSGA
Chain of Cysteine protease ATG4B (Q9Y4P1 whole entry): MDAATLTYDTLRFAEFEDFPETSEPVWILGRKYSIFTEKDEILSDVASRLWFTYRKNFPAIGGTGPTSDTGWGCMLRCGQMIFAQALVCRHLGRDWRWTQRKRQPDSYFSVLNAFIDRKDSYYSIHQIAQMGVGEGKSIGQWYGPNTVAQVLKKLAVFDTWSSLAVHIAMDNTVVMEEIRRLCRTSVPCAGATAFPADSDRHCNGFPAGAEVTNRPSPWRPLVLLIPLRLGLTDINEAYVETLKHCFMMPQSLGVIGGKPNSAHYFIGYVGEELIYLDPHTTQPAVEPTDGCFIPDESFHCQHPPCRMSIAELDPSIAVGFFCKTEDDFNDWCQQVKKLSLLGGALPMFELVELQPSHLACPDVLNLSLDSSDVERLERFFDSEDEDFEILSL
Chain of Polyadenylate-binding protein 1 (P11940 whole entry): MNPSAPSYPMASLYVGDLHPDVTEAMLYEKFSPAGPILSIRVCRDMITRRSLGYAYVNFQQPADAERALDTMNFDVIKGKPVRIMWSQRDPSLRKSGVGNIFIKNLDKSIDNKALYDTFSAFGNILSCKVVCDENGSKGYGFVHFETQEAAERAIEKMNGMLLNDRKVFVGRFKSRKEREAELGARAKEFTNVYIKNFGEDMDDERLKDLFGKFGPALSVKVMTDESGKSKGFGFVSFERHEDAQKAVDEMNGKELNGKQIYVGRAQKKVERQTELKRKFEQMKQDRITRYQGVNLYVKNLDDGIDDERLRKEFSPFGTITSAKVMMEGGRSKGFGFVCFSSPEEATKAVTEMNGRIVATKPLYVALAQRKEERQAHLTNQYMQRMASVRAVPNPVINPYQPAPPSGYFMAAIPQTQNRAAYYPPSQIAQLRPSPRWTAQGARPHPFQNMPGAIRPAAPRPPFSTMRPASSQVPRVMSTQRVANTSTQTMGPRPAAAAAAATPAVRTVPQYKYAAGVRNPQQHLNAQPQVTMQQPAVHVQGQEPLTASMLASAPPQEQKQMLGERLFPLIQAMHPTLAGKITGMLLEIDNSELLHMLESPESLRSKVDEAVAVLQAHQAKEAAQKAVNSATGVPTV
Chain of Phospholipase A2 (P04054 whole entry): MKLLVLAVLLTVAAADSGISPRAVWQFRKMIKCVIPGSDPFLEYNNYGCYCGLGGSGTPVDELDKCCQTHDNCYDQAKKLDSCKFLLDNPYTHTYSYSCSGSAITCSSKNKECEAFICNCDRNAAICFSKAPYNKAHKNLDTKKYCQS
Chain of Procathepsin L (P07711 whole entry): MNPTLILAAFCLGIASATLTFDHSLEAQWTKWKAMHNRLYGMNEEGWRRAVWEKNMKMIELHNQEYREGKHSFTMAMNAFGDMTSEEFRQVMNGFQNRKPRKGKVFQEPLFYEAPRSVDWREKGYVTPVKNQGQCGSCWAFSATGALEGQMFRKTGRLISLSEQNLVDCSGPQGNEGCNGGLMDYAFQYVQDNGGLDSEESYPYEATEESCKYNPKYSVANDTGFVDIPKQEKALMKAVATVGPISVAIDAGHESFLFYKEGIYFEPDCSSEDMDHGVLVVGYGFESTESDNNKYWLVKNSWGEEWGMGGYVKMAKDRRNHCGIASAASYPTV
Chain of Hexokinase (Q38C41 whole entry): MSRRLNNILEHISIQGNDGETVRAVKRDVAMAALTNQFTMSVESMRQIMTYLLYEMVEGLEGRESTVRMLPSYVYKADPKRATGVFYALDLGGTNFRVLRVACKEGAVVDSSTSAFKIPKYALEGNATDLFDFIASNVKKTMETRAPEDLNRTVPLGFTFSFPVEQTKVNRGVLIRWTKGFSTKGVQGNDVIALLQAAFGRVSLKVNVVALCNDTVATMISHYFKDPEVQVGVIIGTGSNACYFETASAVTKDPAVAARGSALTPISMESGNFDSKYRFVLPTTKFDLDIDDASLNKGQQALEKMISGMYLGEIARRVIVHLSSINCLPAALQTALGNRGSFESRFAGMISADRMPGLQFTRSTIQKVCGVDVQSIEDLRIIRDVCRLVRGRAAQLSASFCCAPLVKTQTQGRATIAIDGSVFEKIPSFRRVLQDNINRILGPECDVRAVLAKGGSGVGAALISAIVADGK
Chain of Bcl-2-related protein A1 (Q07440 whole entry): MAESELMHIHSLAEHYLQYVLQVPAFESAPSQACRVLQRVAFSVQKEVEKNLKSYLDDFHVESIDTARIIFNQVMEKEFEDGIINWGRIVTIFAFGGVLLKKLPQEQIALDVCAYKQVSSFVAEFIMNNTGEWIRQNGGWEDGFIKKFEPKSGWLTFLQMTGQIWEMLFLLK

COc1cc(C=NNC(=O)c2ccc(O)cc2)ccc1OCC(=O)Nc1cccc([N+](=O)[O-])c1
IC50 [1]: > 100 µM (inactive)
IC50 [2]: > 100 µM (inactive)

COc1cccc(-c2cc(=O)c3cc(O)ccc3o2)c1
AC50 (Cytochrome P450 2C9): 25.1 µM (inconclusive)

Cc1cccc(NC(=O)C23CCC(C)(C2Br)C3(C)C)c1 (stereo not given)
EC50 [3]: 2.64 µM (active)
EC50 [4]: 5.25 µM (active)

O=C(CCn1sc2ccccc2c1=O)Nc1ccccc1
IC50 (Hexokinase): 19.8 µM (active)

Cc1cc(O)nc(SCC(=O)c2ccc(O)c(O)c2)n1
IC50 (Procathepsin L): > 59.6 µM (not active)
IC50 (Aspartyl aminopeptidase): 1.49 µM (active)

O=c1cccc2n1C[C@H]1CNC[C@H]2C1
AC50 (Cytochrome P450 3A4 [5]): 31.6 µM (inconclusive)
AC50 (Cytochrome P450 3A4 [6]): 31.6 µM (inconclusive)

CCCCC(CC)CNC(=N)NC(=N)NCCCCCCNC(=N)NC(=N)NCC(CC)CCCC (stereo not given) [ALEXIDINE HYDROCHLORIDE]
IC50 (Large T antigen): 29.1 µM (active)
IC50 [7]: 1.98 µM (active)
IC50 (Bcl-2-related protein A1): 5.95 µM (active)
IC50 (Beta-galactosidase): > 66.6 µM (inactive)
IC50 [8]: 25.9 µM (inactive)
IC50 (Cysteine protease ATG4B): 3.89 µM (active)
IC50 (Hexokinase HKDC1): 14.2 µM (active)
IC50 [9]: 1.73 µM (active)
IC50 (Phospholipase A2): 9.51 µM (active)
AC50 [10]: 4.05 µM (active)
